Consider 16 compounds from patent US12187709B2 (Genentech, Inc., priority 2021, dated 2025).

Each structure is given as a SMILES string.

One test deals with Cbl-b (Homo sapiens (Human), UniProt Q13191). Briefly: Cbl-b LCK Ub TR-FRET assay (Cbl-b Lck HTRF). As to conditions: for IC50: Cbl-b LCK Ub TR-FRET; for fold-selectivity (Cbl-b over C-cbl): ratio C-cbl Lck HTRF IC50 / Cbl-b Lck HTRF IC50. The class given is biochemical. An outline of the steps: (§1)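 After the ubiquitination reaction, detection mixture was added and plates incubated 20 min at room temperature before reading. IC50 values were calculated with wells lacking LCK as the low control and DMSO as the high control.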
Chain of Cbl-b (Q13191 40-426): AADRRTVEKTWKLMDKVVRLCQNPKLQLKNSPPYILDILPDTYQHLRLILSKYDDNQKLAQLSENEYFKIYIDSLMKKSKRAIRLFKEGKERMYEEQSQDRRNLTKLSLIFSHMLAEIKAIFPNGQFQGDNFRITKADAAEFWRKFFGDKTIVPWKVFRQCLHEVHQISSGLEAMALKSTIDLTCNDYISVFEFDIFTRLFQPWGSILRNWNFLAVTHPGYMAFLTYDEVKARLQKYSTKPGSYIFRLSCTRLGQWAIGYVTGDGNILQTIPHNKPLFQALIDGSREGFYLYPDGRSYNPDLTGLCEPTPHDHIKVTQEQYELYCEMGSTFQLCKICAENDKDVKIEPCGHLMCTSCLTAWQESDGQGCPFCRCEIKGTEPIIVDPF
For orientation: Time-resolved FRET reads energy transfer from a long-lived donor to a nearby acceptor.

The target in another test is c-Cbl (Homo sapiens (Human), UniProt P22681). Put plainly: C-Cbl LCK Ub TR-FRET assay (C-cbl Lck HTRF). In kind it is biochemical. In a few lines:
as §1

Test [1] concerns the target Human Cbl-b (residues 40-426) (Homo sapiens (Human), UniProt Q13191). Put plainly: Cbl-b SPR assay. As to conditions: for Fold of selectivity: C-cbl SPR Kd vs Cbl-b SPR Kd; for Kd: SPR, 20° C. The class given is binding. An outline of the steps: (§2)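 SPR, multi-cycle, 6-pt 2-fold series, blanks flanking for double referencing; capture 1300-1500 RU; contact 60 s at 40 μl/min; dissoc. 120-1200 s (~4-5 half-lives). 1:1 fit. Chaser variant: single cycle, 5 conc., top 500 nM, 120 s contact, 450 s dissociation.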
In general terms: In SPR one partner is held on a chip, and binding of the other changes the refractive index at the surface.

In the next test the target is c-Cbl (residues 47-435) (Homo sapiens (Human), UniProt P22681). Put plainly: c-Cbl SPR assay. The class given is binding. As to conditions: 20° C. In a few lines: as §2
Chain of c-Cbl (residues 47-435) (P22681 47-435): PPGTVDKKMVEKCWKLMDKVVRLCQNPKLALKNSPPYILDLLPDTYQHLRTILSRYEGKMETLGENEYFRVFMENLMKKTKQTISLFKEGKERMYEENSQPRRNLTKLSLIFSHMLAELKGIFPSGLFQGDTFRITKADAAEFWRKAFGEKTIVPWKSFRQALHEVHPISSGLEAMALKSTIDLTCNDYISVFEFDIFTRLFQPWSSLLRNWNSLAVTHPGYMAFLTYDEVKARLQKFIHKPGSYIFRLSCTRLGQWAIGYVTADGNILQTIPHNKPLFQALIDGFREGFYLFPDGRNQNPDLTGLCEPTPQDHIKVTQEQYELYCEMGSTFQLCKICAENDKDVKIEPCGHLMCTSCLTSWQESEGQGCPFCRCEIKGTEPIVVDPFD

Chain of Human Cbl-b (residues 40-426) (Q13191 40-426): as the sequence (Q13191 40-426) above
Chain of c-Cbl (P22681 47-435): as the sequence (P22681 47-435) above

For orientation: IC50 means the midpoint of a concentration-inhibition curve. Broadly, the Kd is the constant that tells how readily two partners part at equilibrium. Read a low Kd as tighter binding. As for `CCOC1CC([C@H](c2cccc(N3Cc4c(cc(CNC5(C)CCC5)cc4C(F)(F)F)C3=O)c2)c2nncn2C)C1` (single isomer, unassigned) [Compound 265], at Cbl-b, inhibition was half-maximal at 310 nM (IC50) and the “fold-selectivity (Cbl-b over C-cbl)” value is 11x. Moreover, the half-maximal inhibitory concentration (IC50) against c-Cbl amounted to 3400 nM. Besides, in test [1], the Fold of selectivity was 7.5× and the affinity, expressed as Kd, was 180 nM. The Kd at c-Cbl (residues 47-435) came to 1300 nM.
On to `CCOC1CC([C@@H](c2cccc(N3Cc4c(cc(CNC5(C)CCC5)cc4C(F)(F)F)C3=O)c2)c2nncn2C)C1` (single isomer, unassigned) [Compound 267], for which, at Cbl-b, the IC50 turned out to be 37 nM and the “fold-selectivity (Cbl-b over C-cbl)” value was determined as 4.5x. In addition, the IC50 on c-Cbl was 170 nM. In test [1], this compound registered a Fold of selectivity of 7.6× and a Kd of 25 nM. Also, the Kd at c-Cbl (residues 47-435) stood at 190 nM.
With `C[C@@H](NC1(C)CCC1)c1cc(Cl)c2c(c1)C(=O)N(c1cccc([C@]3(c4nncn4C)C[C@@H](F)C3)c1)C2` (single isomer, unassigned) [Compound 288], at Cbl-b, inhibition was half-maximal at 5.3 nM (IC50) and the “fold-selectivity (Cbl-b over C-cbl)” value is listed as 0.92x. At c-Cbl, this compound displayed an IC50 of 4.9 nM. In test [1], the Fold of selectivity amounted to 3.5× and the Kd was determined as 0.1 nM. The compound also displayed a Kd at c-Cbl (residues 47-435) of 0.35 nM.
For `C[C@H](NC1(C)CCC1)c1cc(Cl)c2c(c1)C(=O)N(c1cccc([C@]3(c4nncn4C)C[C@@H](F)C3)c1)C2` (single isomer, unassigned) [Compound 289], the IC50 against Cbl-b was 18 nM; on c-Cbl it was 43 nM. Besides, the “fold-selectivity (Cbl-b over C-cbl)” value on Cbl-b was 2.4x. In test [1], this compound gave a Fold of selectivity of 8.5×. The dissociation constant Kd in test [1] amounted to 4.6 nM; on c-Cbl (residues 47-435) it was 37 nM.
Consider `Cn1cnnc1[C@H](c1cccc(N2Cc3c(cc(CNC4(C)CCC4)cc3C(F)(F)F)C2=O)c1)C1CCOCC1.O=CO` (single isomer, unassigned) [Compound 291, (S)-2-(3-((4-methyl-4H-1,2,4-triazol-3-yl)(tetrahydro-2H-pyran-4-yl)methyl)phenyl)-6-(((1-methylcyclobutyl)amino)methyl)-4-(trifluoromethyl)isoindolin-1-one formate], for which the IC50 against Cbl-b came to 11 nM; against c-Cbl, 47 nM. The Kd turned out to be 62 nM in test [1] and 130 nM at c-Cbl (residues 47-435).
Take `Cn1cnnc1C1(c2cccc(N3Cc4c(cc([C@@H](O)CO)cc4C(F)(F)F)C3=O)c2)CCC1` (single isomer, unassigned) [Compound 301]: the IC50 against Cbl-b is 300 nM; on c-Cbl, 590 nM. Besides, at Cbl-b, the “fold-selectivity (Cbl-b over C-cbl)” value came out at 2.0x. This compound had a Fold of selectivity in test [1] of 2.8×. In addition, the Kd in test [1] was determined as 560 nM; at c-Cbl (residues 47-435), 1400 nM.
`Cn1cnnc1C1(c2cccc(N3Cc4c(cc([C@H](O)CO)cc4C(F)(F)F)C3=O)c2)CCC1` (single isomer, unassigned) [Compound 302]: on Cbl-b, the IC50 was determined as 410 nM and the “fold-selectivity (Cbl-b over C-cbl)” value is listed as 2.1x. At c-Cbl, this compound gave an IC50 of 880 nM. Moreover, in test [1], the Fold of selectivity turned out to be 4.0× and the Kd turned out to be 410 nM. The compound further yielded a Kd on c-Cbl (residues 47-435) of 1600 nM.
Take `Cn1cnnc1[C@@H](c1cccc(N2Cc3c(cc(CNC4(C)CCC4)cc3C(F)F)C2=O)c1)C1COC1` (single isomer, unassigned) [Compound 303]: the IC50 worked out at 11 nM at Cbl-b and 26 nM at c-Cbl. For the same compound, the “fold-selectivity (Cbl-b over C-cbl)” value at Cbl-b is recorded as 2.3x. In test [1], the Fold of selectivity is 8.2×. The Kd was determined as 3.3 nM in test [1] and 28 nM on c-Cbl (residues 47-435).
Take `Cn1cnnc1[C@@](O)(c1cccc(N2Cc3c(cc(CNC4(C)CCC4)cc3C(F)(F)F)C2=O)c1)C(F)(F)F` (single isomer, unassigned) [Compound 308]: on Cbl-b, half-maximal inhibition (IC50) was put at 27 nM and the “fold-selectivity (Cbl-b over C-cbl)” value was found to be 1.5x. On c-Cbl, this compound showed an IC50 of 41 nM. Further, in test [1], the Fold of selectivity is 1.5× and the dissociation constant Kd is 37 nM. On c-Cbl (residues 47-435), this compound had a Kd of 56 nM.
For the compound `C[C@@H](NC1(C)CCC1)c1cc(Cl)c2c(c1)C(=O)N(c1cccc([C@]3(c4nncn4C)C[C@H](F)C3)c1)C2` (single isomer, unassigned) [Compound 311], on Cbl-b, 4 nM corresponded to half-maximal inhibition (IC50) and the “fold-selectivity (Cbl-b over C-cbl)” value came to 1.1x. This compound also returned an IC50 on c-Cbl of 4.3 nM. Also, in test [1], the Fold of selectivity came to 2.5× and binding was put at a Kd of 0.1 nM. In addition, the Kd at c-Cbl (residues 47-435) is 0.25 nM.
As for `C[C@H](NC1(C)CCC1)c1cc(Cl)c2c(c1)C(=O)N(c1cccc([C@]3(c4nncn4C)C[C@H](F)C3)c1)C2` (single isomer, unassigned) [Compound 312], on Cbl-b, the IC50 is 7.8 nM and the “fold-selectivity (Cbl-b over C-cbl)” value came to 3.5x. For the same compound, 27 nM corresponded to half-maximal inhibition against c-Cbl (IC50). In test [1], this compound came in with a Fold of selectivity of 14× and a Kd of 2 nM. The Kd on c-Cbl (residues 47-435) stood at 28 nM.
Turning to `CC[C@@H](NC1(C)CCC1)c1cc2c(c(C(F)(F)F)c1)CN(c1cccc([C@@H](c3nncn3C)C3COC3)c1)C2=O` (single isomer, unassigned) [Compound 316], at Cbl-b, the IC50 turned out to be 270 nM and the “fold-selectivity (Cbl-b over C-cbl)” value is given as 11x. Further, on c-Cbl, the IC50 is 3100 nM. In test [1], this compound had a Fold of selectivity of 7.5× and a Kd of 170 nM. Also, the Kd on c-Cbl (residues 47-435) stood at 1300 nM.
Take `Cn1cnnc1[C@@H](c1cccc(N2Cc3c(Cl)cc(CNC4(C)CCC4)cc3C2=O)c1)[C@H]1C[C@H](F)C1` (single isomer, unassigned) [Compound 318]: at Cbl-b, the IC50 was found to be 280 nM and the “fold-selectivity (Cbl-b over C-cbl)” value was 5.6x. This compound also registered an IC50 against c-Cbl of 1600 nM. In test [1], this compound registered a Fold of selectivity of 9.6× and a Kd of 250 nM. Also, at c-Cbl (residues 47-435), the Kd was found to be 2300 nM.
Take `Cn1cnnc1[C@H](c1cccc(N2Cc3c(Cl)cc(CNC4(C)CCC4)cc3C2=O)c1)[C@H]1C[C@@H](F)C1` (single isomer, unassigned) [Compound 319]: at Cbl-b, 12 nM corresponded to half-maximal inhibition (IC50) and the “fold-selectivity (Cbl-b over C-cbl)” value is 3.5x. At c-Cbl, this compound registered an IC50 of 41 nM. Besides, in test [1], the Fold of selectivity is reported as 8.0× and the Kd is 6.4 nM. Also, on c-Cbl (residues 47-435), the affinity, expressed as Kd, was 53 nM.
Regarding `Cn1cnnc1[C@H](c1cccc(N2Cc3c(Cl)cc(CNC4(C)CCC4)cc3C2=O)c1)[C@H]1C[C@H](F)C1` (single isomer, unassigned) [Compound 320], at Cbl-b, inhibition was half-maximal at 5.6 nM (IC50) and the “fold-selectivity (Cbl-b over C-cbl)” value amounted to 1.3x. This compound also had an IC50 against c-Cbl of 7.5 nM. In test [1], the Fold of selectivity amounted to 5.5× and binding was put at a Kd of 0.4 nM. Also, the Kd on c-Cbl (residues 47-435) was 2.2 nM.
Take `Cc1cc([C@@H](c2nncn2C)C2COC2)cc(N2Cc3c(cc(CNC4(C)CCC4)cc3C(F)(F)F)C2=O)c1` (single isomer, unassigned) [Compound 333]: on Cbl-b, it took 39 nM to reach half-maximal inhibition (IC50) and the “fold-selectivity (Cbl-b over C-cbl)” value was 1.0x. On c-Cbl, this compound registered a half-inhibitory concentration (IC50) of 41 nM. In test [1], the Fold of selectivity is reported as 2.2× and the Kd amounted to 26 nM. At c-Cbl (residues 47-435), this compound gave a Kd of 56 nM.
